Results: patent US8637075B2, “Colostrum composition” (Pharma GP ApS, priority 2008, dated 2014)

Key:
Type in all cases: cell-based
[1] = system: neopterin formation in unstimulated PBMC; assay: Example 16: neopterin formation in unstimulated human PBMC; settings: 48 h
Method: (§1) PBMC were isolated from whole blood obtained from healthy donors, of whom informed consent was obtained that their donated blood unit was used for scientific purposes if not otherwise used. Separation of blood cells was performed using density centrifugation (Lymphoprep, Nycomed Pharma AS, Oslo, Norway). After isolation, PBMC were washed three times in phosphate buffered saline containing 0.2% EDTA [0.5 mmol/L]. Cells were maintained in RPMI 1640 supplemented with 10% heat-inactivated fetal calf serum (Biochrom, Berlin, Germany), 1% of 200 mmol/L glutamine (Serve, Heidelberg, Germany) and 0.1% of gentamicin (50 mg/ml, Bio-Whittaker, Walkersville, Md.) in a humidified atmosphere containing 5% CO2 for 48 h. […]
(§2) After incubation of cells for 48 h, supernatants were harvested by centrifugation and tryptophan and kynurenine concentrations were measured by high performance liquid chromatography (HPLC) using 3-nitro-L-tyrosine as internal standard (Widner and others 1997). To estimate IDO activity, the kynurenine to tryptophan ratio (kyn/trp) was calculated and expressed as μmol kynurenine/mmol tryptophan (Widner et al., 1997). Neopterin concentrations were determined by ELISA (BRAHMS, Hennigsdorf/Berlin, Germany) according to the manufacturer's instructions with a detection limit of 2 nmol/L. […]

[2] = system: neopterin formation in PHA-stimulated PBMC; assay: Example 16: neopterin formation in PHA-stimulated human PBMC; settings: PHA 10 μg/ml, 48 h
Method: (§3) PBMC were isolated from whole blood obtained from healthy donors, of whom informed consent was obtained that their donated blood unit was used for scientific purposes if not otherwise used. Separation of blood cells was performed using density centrifugation (Lymphoprep, Nycomed Pharma AS, Oslo, Norway). After isolation, PBMC were washed three times in phosphate buffered saline containing […] [0.5 mmol/L]. Cells were maintained in RPMI 1640 supplemented with 10% heat-inactivated fetal calf serum (Biochrom, Berlin, Germany), 1% of 200 mmol/L glutamine (Serve, Heidelberg, Germany) and 0.1% of gentamicin (50 mg/ml, Bio-Whittaker, Walkersville, Md.) in a humidified atmosphere containing 5% CO2 for 48 h. This procedure was observed earlier to reveal best reproducible results when applied for testing of anti-inflammatory effects of compounds or drugs (Widner et al., 1997). Average tryptophan content in the supplemented RPMI 1640 medium was 31.5 μmol/L. For each of the three experiments run in duplicates, PBMC were freshly prepared. Isolated PBMC were plated at a density of 1.5×10^6 cells/ml in supplemented RPMI 1640, preincubated for 30 minutes with or without BC preparations and stimulated or not with 10 μg/ml PHA for 48 h.
(§4) After incubation of cells for 48 h, supernatants were harvested by centrifugation and tryptophan and kynurenine concentrations were measured by high performance liquid chromatography (HPLC) using 3-nitro-L-tyrosine as internal standard (Widner and others 1997). To estimate IDO activity, the kynurenine to tryptophan ratio (kyn/trp) was calculated and expressed as μmol kynurenine/mmol tryptophan (Widner et al., 1997). Neopterin concentrations were determined by ELISA (BRAHMS, Hennigsdorf/Berlin, Germany) according to the manufacturer's instructions with a detection limit of 2 nmol/L.
(§5) For statistical analysis, the Statistical Package for the Social Sciences (version 14 SPSS, Chicago, Ill., USA) was used. […] P-values below 0.05 were considered to indicate significant differences.

[3] = system: indoleamine 2,3-dioxygenase (IDO) activity in PHA-stimulated PBMC; assay: Example 16: IDO activity (kyn/trp) in PHA-stimulated human PBMC; settings: PHA 10 μg/ml, 48 h
Method: as §3, §4, §5

[4] = system: indoleamine 2,3-dioxygenase (IDO) activity in unstimulated PBMC; assay: Example 16: IDO activity (kyn/trp) in unstimulated human PBMC; settings: 20 mg/ml, 48 h
Method: as §1, §2

Row | Substance | neopterin formation as % of unstimulated control ([1]; 0.2 mg/ml) | neopterin formation as % of unstimulated control ([1]; 2 mg/ml) | neopterin formation as % of PHA control ([2]; 2 mg/ml) | neopterin formation as % of PHA control ([2]; 20 mg/ml) | IDO activity (kyn/trp) as % of PHA control ([3]; 0.2 mg/ml) | IDO activity (kyn/trp) as % of unstimulated control [4] | increase of neopterin concentration versus unstimulated PBMC ([2]; PBMC) | neopterin concentration in the supernatant ([2]; PBMC) | Kyn/trp ([3]; PBMC) | increase of IDO activity versus unstimulated PBMC ([3]; PBMC) | kynurenine concentration in the supernatant ([3]; PBMC) | tryptophan content in the supernatant ([3]; PBMC)
1 | lactoferrin | 125±2.8% | 132±4.1% | 61.3±11.7% | 31.1±3.9% | 34.0±9.7% | 54.7±5.0% | – | – | – | – | – | –
2 | phytohemagglutinin [phytohemagglutinin (PHA)] | – | – | – | – | – | – | about 3.6 fold | 13.2 ± 3.6 nmol/L | 1312±459 μmol/mmol | approximately 47 fold | 9.8 ± 1.3 µmol/L | 8.2 ± 2.0 µmol/L
